Reference: paper PMC9820082, “Synthesis of 9-Hydroxy-1H-Benzo[f]chromene Derivatives with Effective Cytotoxic Activity on MCF7/ADR, P-Glycoprotein Inhibitors, Cell Cycle Arrest and Apoptosis Effects” (International Journal of Molecular Sciences, 2022)

Key:
[1] = tested on: HeLa (cervical cancer cell line); test: MTT colorimetric cytotoxicity assay, HeLa; format: cell-based, human; details: 24 h incubation, mean ± standard error
Description: (§1) Three human cancer cell lines, PC-3 (human prostate adenocarcinoma, metastatic), […], were used to test the anti-proliferative activity of β-enaminonitrile (4a–p) using the MTT colorimetric assay at concentrations ranging from 0–100 μM. The representative active cytotoxic substances 4a, 4c, 4d, 4e, 4g, 4i, 4k and 4o were also tested against two normal cell lines, human fetal lung (HFL-1) and human diploid fibroblasts (WI-38), as well as Adriamycin (ADR)-resistant human breast cancer cells (MCF-7/ADR). The reference cytotoxic agents, Vinblastine and Doxorubicin, were used in the tests.
(§2) The cytotoxic activity was appraised using the 3-(4,5-dimethylthiazol-2-yl)-2,5-diphenyltetrazolium bromide (MTT) colorimetric assay for the antitumor cell lines, as reported previously, and the ELISA assay for MCF-7/ADR [69].

[2] = tested on: PC-3 (human prostate adenocarcinoma, metastatic); test: MTT colorimetric cytotoxicity assay, PC-3; format: cell-based; details: Homo sapiens; MTT, 24 h incubation, mean ± standard error
Description: as §1
(§3) The tumor cell lines MCF-7, HepG-2, PC-3 MCF-7/ADR, HFL-1 and (WI-38) were obtained from the American Type Culture Collection (ATCC, Rockville, MD, USA). The cells were grown on RPMI-1640 medium supplemented with 10% inactivated fetal calf serum and 50 µg/mL gentamycin. The cells were maintained at 37 ^οC in a humidified atmosphere with 5% CO2 and were subcultured two to three times a week.
as §2

[3] = tested on: SKOV-3 (ovarian cancer cell line); test: MTT colorimetric cytotoxicity assay, SKOV-3; format: cell-based, human; details: Homo sapiens, SK-OV-3, 24 h, 24 h incubation, mean ± standard error
Description: as §1, §2

[4] = tested on: human diploid fibroblasts (WI-38); test: Cytotoxicity against normal cell line WI-38; format: cell-based; details: Homo sapiens, WI-38, 24 h, 24 h incubation, mean ± standard error
Description: as §1, §3, §2

human fetal lung (HFL-1) = test: Cytotoxicity against normal cell line HFL-1; format: cell-based; details: Homo sapiens, HFL1, 24 h, 24 h incubation, mean ± standard error
Description: as §1, §3, §2

[5] = tested on: Adriamycin (ADR)-resistant human breast cancer cells (MCF-7/ADR); test: Cytotoxicity against MCF-7/ADR cells; format: cell-based; details: 24 h exposure, mean ± standard error
Description: as §1, §3, §2

MCF-7/ADR cells = test: Annexin V/PI double staining flow cytometric apoptosis test; format: cell-based, human; details: IC50 value, 24 h
Source text: One of the optional mechanisms regarding the lethal action of chemotherapeutic medicines is blocking cell cycle progression, triggering apoptosis with otherwise mutual effect. […] The pivotal relation of the newly synthesized MCF-7/ADR “anticancer drugs” was further evaluated using the Annexin V/PI double staining flow cytometric test. […] In comparison to Doxorubicin’s 30% total apoptosis rate, which was nearly identical to 4a, 4c and 4g, compounds 4d, 4e and 4i were leading with percentages of 41%, 31% and 38%, respectively. Only compounds 4a (8.5%) and 4g (11%) had greater effects on necrosis compared to doxorubicin (5%). Other examined substances caused both early and late apoptosis in all treated cells (Figure 7b). Therefore, MCF-7/ADR cytotoxicity is induced by apoptotic processes, apparently without negative effects on P-gp.
(a) The dot plot of the Annexin V/PI-stained cells, treated with the indicated drugs. […] The data are expressed as the mean ± SD of three independent experiments in triplicate. Significances are shown in comparison to control cells (* p < 0.001). TEXT PRINTED IN THE PICTURE: (a) DOX.: 3.33%; 18.41%; 7.85% | (a) 4a: 8.66%; 18.17%; 4.24% | (a) 4c: 2.74%; 12.73%; 9.11% | (a) 4d: 4.85%; 27.44%; 8.73% | (a) 4e: 5.77%; 9.92%; 15.92% | (a) 4g: 11.04%; 3.94%; 7.38% | (a) 4i: 5.54%; 12.87%; 19.61% DOUBTS OF THE COPYIST ABOUT THIS PICTURE: The quadrant percentages in panel (a) are printed very small and blurred, so 3, 5, 6, 8 and 9 cannot be told apart with certainty. […] They are told apart only by their quadrant in the PI / Annexin V-FITC plot, and are listed upper left, upper right, lower right. / The sample line in each plot reads MCF7/ADR. In the 4g plot it is cut off as 'MCF7/AI'. / The panel 'Cont.' (untreated control: 1.56%, 0.15%, 0.48%) is left out because it is not a substance.

P-glycoprotein (P-gp) = test: P-gp content in MCF-7/ADR cell lysate (human P-gp ELISA kit); format: cell-based; details: human, MCF-7/ADR cells (cell lysate); MCF-7/ADR cell lysate, 48 h, ELISA
Description: P-glycoprotein (P-gp)-mediated multidrug resistance (MDR) is a phenomenon in which cells become resistant to structurally and mechanistically unrelated drugs, resulting in low intracellular drug concentrations. It is one of the noteworthy problems in malignant tumor clinical therapeutics.
The content of P-gp in the MCF-7/ADR cell lysates after incubation with varying conc. (12.5–100 µM) of tested compounds 4a, 4c, 4d, 4e, 4g and 4i following exposure for 48 hr was determined using a commercial human P-gp (Permeability Glycoprotein) ELISA Kit (MBS2506188, MyBioSource Inc., San Diego, CA, USA). Absorption was recorded at 450 nm with a Spectramax Gemini fluorescence microplate reader (Molecular Devices, Sunnyvale, CA, USA).

[6] = Homo sapiens, NCI/ADR-RES, 24 h

Row | melting point | IC50 at 48 h (P-glycoprotein (P-gp)) | Structure (SMILES) | IC50 ([1]; Homo sapiens, HeLa, 24 h) | IC50 [2] | IC50 [3] | IC50 [1] | IC50 [4] | IC50 (human fetal lung (HFL-1)) | IC50 [5, 6] | IC50 [5] | necrosis (MCF-7/ADR cells)
1 | 265 to 266 °C |  | COc1ccc(C2C(C#N)=C(N)Oc3ccc4ccc(O)cc4c32)c(OC)c1OC (stereo not shown) [4m, 3-Amino-1-(2,3,4-Trimethoxyphenyl)-9-Hydroxy-1H-Benzo[f]chromene-2-Carbonitrile] | 8.8 ± 0.5 µM | 6.5 ± 1.3 µM | 3.4 ± 0.5 µM |  |  |  |  |  | 
2 | 235 to 236 °C |  | COc1cc(OC)c(C2C(C#N)=C(N)Oc3ccc4ccc(O)cc4c32)cc1OC (stereo not shown) [4n, 3-Amino-1-(2,4,5-Trimethoxyphenyl)-9-Hydroxy-1H-Benzo[f]chromene-2-Carbonitrile] | 4.9 ± 0.5 µM | 7.6 ± 1.2 µM | 2.4 ± 0.4 µM |  |  |  |  |  | 
3 | 252 to 253 °C |  | COc1cc(C2C(C#N)=C(N)Oc3ccc4ccc(O)cc4c32)cc(OC)c1OC (stereo not shown) [4o, 3-Amino-1-(3,4,5-Trimethoxyphenyl)-9-Hydroxy-1H-Benzo[f]chromene-2-Carbonitrile] | 5.7 ± 1.8 µM | 2.1 ± 0.8 µM | 3.1 ± 0.1 µM |  | 20.4 ± 0.3 µM | 22.2 ± 0.4 µM |  | 23.7 ± 0.4 µM | 
4 | 299 to 300 °C |  | N#CC1=C(N)Oc2ccc3ccc(O)cc3c2C1c1c(F)c(F)c(F)c(F)c1F (stereo not shown) [4p, 3-Amino-9-Hydroxy-1-(Perfluorophenyl)-1H-Benzo[f]chromene-2-Carbonitrile] | 3.9 ± 0.4 µM | 4.5 ± 1.2 µM | 4.2 ± 0.3 µM |  |  |  |  |  | 
5 |  | 50.9 µM | COc1cccc2c1C(=O)c1c(O)c3c(c(O)c1C2=O)C[C@@](O)(C(=O)CO)C[C@@H]3O[C@H]1C[C@H](N)[C@H](O)[C@H](C)O1 [Doxorubicin, reference compound] | 1.5 ± 0.3 µM | 1.3 ± 0.3 µM | 1.1 ± 0.2 µM |  |  |  | 18.6 ± 0.2 µM |  | 5%

Continued, molecule first:

Row | Structure (SMILES) | melting point | IC50 at 48 h (P-glycoprotein (P-gp)) | IC50 ([1]; Homo sapiens, HeLa, 24 h) | IC50 [2] | IC50 [3] | IC50 [1] | IC50 [4] | IC50 (human fetal lung (HFL-1)) | IC50 [5, 6] | IC50 [5] | necrosis (MCF-7/ADR cells)
6 | N#CC1=C(N)Oc2ccc3ccc(O)cc3c2C1c1c(F)cccc1F (stereo not shown) [4b, 3-Amino-1-(2,6-Difluorophenyl)-9-Hydroxy-1H-Benzo[f]chromene-2-Carbonitrile] | 193 to 194 °C |  | 6.7 ± 0.2 µM | 9.4 ± 0.5 µM | 2 ± 0.2 µM |  |  |  |  |  | 
7 | N#CC1=C(N)Oc2ccc3ccc(O)cc3c2C1c1c(Cl)cccc1Cl (stereo not shown) [4f, 3-Amino-1-(2,6-Dichlorophenyl)-9-Hydroxy-1H-Benzo[f]chromene-2-Carbonitrile] | 196 to 197 °C |  | 4.1 ± 0.3 µM | 26.6 ± 3.1 µM | 7 ± 0.4 µM |  |  |  |  |  | 
8 | N#CC1=C(N)Oc2ccc3ccc(O)cc3c2C1c1c(F)cccc1Cl (stereo not shown) [4h, 3-Amino-1-(2-Chloro-6-Flourophenyl)-9-Hydroxy-1H-Benzo[f]chromene-2-Carbonitrile] | 298 to 299 °C |  | 4.7 ± 0.5 µM | 11.6 ± 0.8 µM | 3.1 ± 0.2 µM |  |  |  |  |  | 
9 | COc1cccc(C2C(C#N)=C(N)Oc3ccc4ccc(O)cc4c32)c1O (stereo not shown) [4j, 3-Amino-1-(2-Hydroxy-3-Methoxyphenyl)-9-Hydroxy-1H-Benzo[f]chromene-2-Carbonitrile] | 269 to 270 °C |  | 50.4 ± 1.3 µM | 33.5 ± 3.5 µM | 97.4 ± 0.8 µM |  |  |  |  |  | 
10 | COc1ccc(C2C(C#N)=C(N)Oc3ccc4ccc(O)cc4c32)c(OC)c1 (stereo not shown) [4k, 3-Amino-1-(2,4-Dimethoxyphenyl)-9-Hydroxy-1H-Benzo[f]chromene-2-Carbonitrile] | 242 to 243 °C |  |  | 3.7 ± 0.3 µM | 1.7 ± 0.3 µM | 6.7 ± 0.1 µM | 25.3 ± 1.3 µM | 24.2 ± 0.1 µM | 36.8 ± 0.2 µM |  | 
11 | COc1ccc(C2C(C#N)=C(N)Oc3ccc4ccc(O)cc4c32)cc1OC (stereo not shown) [4l, 3-Amino-1-(3,4-Dimethoxyphenyl)-9-Hydroxy-1H-Benzo[f]chromene-2-Carbonitrile] | 268 to 269 °C |  | 5.3 ± 0.2 µM | 4.1 ± 0.9 µM | 4 ± 1.3 µM |  |  |  |  |  | 
12 | CC[C@]1(O)C[C@@H]2CN(CCc3c([nH]c4ccccc34)[C@@](C(=O)OC)(c3cc4c(cc3OC)N(C)[C@H]3[C@@](O)(C(=O)OC)[C@H](OC(C)=O)[C@]5(CC)C=CCN6CC[C@]43[C@@H]65)C2)C1 [Vinblastine, reference compound] |  |  | 5.7 ± 1.1 µM | 7.5 ± 1.3 µM | 3.2 ± 1.2 µM |  |  |  |  |  | 
